This is an account of results in US11566057B2, “Long-acting co-agonists of the glucagon and GLP-1 receptors” (Merck Sharp & Dohme Corp., priority 2017, dated 2023).

For assay [1], the target named is T1, human GLP1R (Homo sapiens, UniProt P43220).
T1 construct: expressed in transfected cells; growth medium holds Blasticidin and Hygromycin
In words: cAMP activity assay at the GLP-1 receptor (GLP1R). Type of assay: cell-based. Conditions: summary statement: EC50 at each of the glucagon and GLP-1 receptors; read-out: EC50 at the GLP-1 receptor. How it is done: Activity of the peptides at the Glucagon receptor (GCGR) and GLP-1 receptor (GLP1R) was measured in a cAMP activity assay.
GCG/GLP-1 receptor co-agonist peptides were dissolved in 100% DMSO (dimethyl sulfoxide) and serially diluted to generate 10 point titrations. The peptide solutions were then transferred into 384-well assay plates (150 nL/well). Assay ready frozen cells expressing human GLP1R or human GCGR were suspended in growth media consisting of DMEM medium (GIBCO®), 10% FBS (GIBCO®), 1×NEAA(GIBCO®), 1×P/S (GIBCO®), 10 ug/mL Blasticidin (GIBCO®) and 200 μg/mL Hygromycin (GIBCO®). […] The cell suspensions (15 μL) were then added to the assay plates containing the peptide solutions (30,000 cells/well for human GCGR; 10,000 cells/well for human GLP1R). The cells were incubated for 1 hour at room temperature in the dark. Production of cAMP was determined using HitHunter™ cAMPXS kits (DiscoverX) following manufacturer protocol. The plates were incubated for overnight at room temperature in the dark. Luminescence was measured using an EnVision Multilabel plate reader (Perkin Elmer). Native GLP-1 and Glucagon (Bachem) are used as control peptides. EC50 values were calculated using uses a 4 parameter logistic fit based on the Levenberg-Marquardt algorithm.

Assay [2] deals with T2, human GCGR (Homo sapiens, UniProt P47871).
T2 construct: expressed in transfected cells; growth medium holds Blasticidin and Hygromycin
As to the kind of experiment: cAMP activity assay at the Glucagon receptor (GCGR). Type of assay: cell-based. As to conditions: for hGCGR/hGLP1R (hTone): ratio of GCGR EC50 to GLP1R EC50. The essentials:
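Peptides serially diluted from DMSO (10 points) and added to frozen-stock cells bearing human GLP1R (10,000 cells/well) or GCGR (30,000 cells/well), 1 h at RT, dark. EC50 by four-parameter logistic fit of HitHunter cAMPXS luminescence, read following overnight RT incubation.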

[3] abbreviates: summary statement: EC50 at each of the glucagon and GLP-1 receptors, read-out: EC50 at the glucagon receptor.
[4] abbreviates: cells expressing human GCGR, cAMP production, buffer with or without 20% human serum (not stated which), read-out: GCGR EC50 human.

Each structure is given as a SMILES string. Like-named read-outs stand apart in the source and are kept apart here. Numbered stars: 1 amine (or outer) side, 2 acyl side, 3 side chain; on linkers, the order of the positions; unused ones are H or OH. Square brackets hold non-standard residues; d marks the D form. Side chains are listed from the residue outwards. Peptide text beside a SMILES is read from it. * marks the point of attachment. C20 diacid = O=C(O)CCCCCCCCCCCCCCCCCCC(=O)*; Phe(4-CH2NH2) = NCc1ccc(C[C@H](N)C(=O)O)cc1; C18 diacid = O=C(O)CCCCCCCCCCCCCCCCC(=O)*; αMeW = C[C@](N)(Cc1c[nH]c2ccccc12)C(=O)O; C16 diacid = O=C(O)CCCCCCCCCCCCCCC(=O)*; γGlu = O=C(O)[C@H](CCC(=O)[*:2])N[*:1]; Met(O2) = CS(=O)(=O)CC[C@H](N)C(=O)O; αMeF = C[C@](N)(Cc1ccccc1)C(=O)O; αMeD = C[C@](N)(CC(=O)O)C(=O)O; αMeS = C[C@](N)(CO)C(=O)O; AEEA = NCCOCCOCC(=O)O; Aib = CC(C)(N)C(=O)O Some results are limits rather than exact numbers.

T1 sequence (P43220 24-463): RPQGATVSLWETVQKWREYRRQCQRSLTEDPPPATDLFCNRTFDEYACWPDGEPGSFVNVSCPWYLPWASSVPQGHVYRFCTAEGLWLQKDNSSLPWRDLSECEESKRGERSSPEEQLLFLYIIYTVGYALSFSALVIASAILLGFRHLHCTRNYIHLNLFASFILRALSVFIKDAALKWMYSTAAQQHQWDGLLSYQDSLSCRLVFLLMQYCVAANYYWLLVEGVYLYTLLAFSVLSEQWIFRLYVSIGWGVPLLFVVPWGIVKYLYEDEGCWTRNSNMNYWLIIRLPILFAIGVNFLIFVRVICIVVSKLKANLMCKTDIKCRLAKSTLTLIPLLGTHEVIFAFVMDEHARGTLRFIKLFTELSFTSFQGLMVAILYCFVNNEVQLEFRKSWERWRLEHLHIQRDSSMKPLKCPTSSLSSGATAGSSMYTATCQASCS
T2 sequence (P47871 26-477): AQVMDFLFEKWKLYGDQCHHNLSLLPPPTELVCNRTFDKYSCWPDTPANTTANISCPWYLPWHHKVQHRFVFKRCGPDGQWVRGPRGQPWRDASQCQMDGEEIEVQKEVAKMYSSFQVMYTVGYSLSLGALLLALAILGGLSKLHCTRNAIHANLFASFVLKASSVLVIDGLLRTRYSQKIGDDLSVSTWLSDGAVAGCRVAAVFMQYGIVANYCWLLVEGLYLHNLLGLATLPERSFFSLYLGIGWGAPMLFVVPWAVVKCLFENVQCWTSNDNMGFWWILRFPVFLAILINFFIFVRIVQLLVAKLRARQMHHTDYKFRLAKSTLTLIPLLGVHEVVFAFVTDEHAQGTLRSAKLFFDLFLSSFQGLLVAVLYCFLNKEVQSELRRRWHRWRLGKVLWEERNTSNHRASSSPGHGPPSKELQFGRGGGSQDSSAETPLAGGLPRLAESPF

Regarding `CC(C)C[C@H](NC(=O)[C@H](Cc1ccc(O)cc1)NC(=O)[C@H](CCCCN)NC(=O)[C@H](CO)NC(=O)[C@H](Cc1ccc(O)cc1)NC(=O)[C@H](CC(=O)O)NC(=O)[C@H](CO)NC(=O)[C@@H](NC(=O)[C@H](Cc1ccccc1)NC(=O)[C@@H](NC(=O)CNC(=O)[C@H](CCC(N)=O)NC(=O)[C@](C)(CO)NC(=O)[C@@H](N)Cc1c[nH]cn1)[C@@H](C)O)[C@@H](C)O)C(=O)N[C@@H](CC(=O)O)C(=O)N[C@@H](C)C(=O)N[C@@H](CCCNC(=N)N)C(=O)N[C@@H](C)C(=O)N[C@@H](C)C(=O)N[C@@H](CCC(N)=O)C(=O)N[C@@H](CCCCNC(=O)COCCOCCNC(=O)COCCOCCNC(=O)CC[C@H](NC(=O)CCCCCCCCCCCCCCC(=O)O)C(=O)O)C(=O)N[C@@H](Cc1ccccc1)C(=O)N[C@H](C(=O)N[C@@H](CCC(N)=O)C(=O)N[C@@H](Cc1c[nH]c2ccccc12)C(=O)N[C@@H](CC(C)C)C(=O)N[C@@H](CCS(C)(=O)=O)C(=O)N[C@@](C)(CC(=O)O)C(=O)N[C@H](C(N)=O)[C@@H](C)O)C(C)C` [TP615] (H-H[αMeS]QGTFTSDYSKYLDARAAQK([AEEA-AEEA-γGlu-C16 diacid])FVQWL[Met(O2)][αMeD]T-NH2), the EC50 in assay [1] and in assay [2] (setting [3]) was below 5 nM each time. In assay [2], the “hGCGR/hGLP1R (hTone)” value was 0.6.
In the case of `CC(C)C[C@H](NC(=O)[C@H](Cc1ccc(O)cc1)NC(=O)[C@H](CCCCN)NC(=O)[C@H](CO)NC(=O)[C@H](Cc1ccc(CNC(=O)COCCOCCNC(=O)COCCOCCNC(=O)CC[C@H](NC(=O)CCCCCCCCCCCCCCCCCCC(=O)O)C(=O)O)cc1)NC(=O)[C@H](CC(=O)O)NC(=O)[C@H](CO)NC(=O)[C@@H](NC(=O)[C@H](Cc1ccccc1)NC(=O)[C@@H](NC(=O)CNC(=O)[C@H](CCC(N)=O)NC(=O)C(C)(C)NC(=O)[C@@H](N)Cc1c[nH]cn1)[C@@H](C)O)[C@@H](C)O)C(=O)N[C@@H](CC(=O)O)C(=O)N[C@@H](C)C(=O)N[C@@H](CCCNC(=N)N)C(=O)N[C@@H](C)C(=O)N[C@@H](C)C(=O)N[C@@H](CCC(N)=O)C(=O)N[C@@H](CC(=O)O)C(=O)N[C@@H](Cc1ccccc1)C(=O)N[C@H](C(=O)N[C@@H](CCC(N)=O)C(=O)N[C@@H](Cc1c[nH]c2ccccc12)C(=O)N[C@@H](CC(C)C)C(=O)N[C@@H](CCS(C)(=O)=O)C(=O)N[C@@H](CC(=O)O)C(=O)N[C@H](C(N)=O)[C@@H](C)O)C(C)C` [TP580] (H-H[Aib]QGTFTSD[Phe(4-CH2NH2)]([AEEA-AEEA-γGlu-C20 diacid])SKYLDARAAQDFVQWL[Met(O2)]DT-NH2; N-terminus assumed), the EC50 (commonly the concentration giving half of the maximal effect) is below 5 nM in assay [1], 1.09 nM in assay [2] (setting [4]) and below 5 nM in assay [2] (setting [3]). Moreover, in assay [2], the “hGCGR/hGLP1R (hTone)” value turned out to be 2.4.
Turning to `CC(C)C[C@H](NC(=O)[C@H](Cc1ccc(O)cc1)NC(=O)[C@H](CCCCN)NC(=O)[C@H](CO)NC(=O)[C@H](Cc1ccc(O)cc1)NC(=O)[C@H](CC(=O)O)NC(=O)[C@H](CO)NC(=O)[C@@H](NC(=O)[C@H](Cc1ccccc1)NC(=O)[C@@H](NC(=O)CNC(=O)[C@H](CCC(N)=O)NC(=O)C(C)(C)NC(=O)[C@@H](N)Cc1c[nH]cn1)[C@@H](C)O)[C@@H](C)O)C(=O)N[C@@H](CC(=O)O)C(=O)N[C@@H](C)C(=O)N[C@@H](CCCNC(=N)N)C(=O)N[C@@H](C)C(=O)N[C@@H](C)C(=O)N[C@@H](CCCCNC(=O)COCCOCCNC(=O)COCCOCCNC(=O)CC[C@H](NC(=O)CCCCCCCCCCCCCCCCCCC(=O)O)C(=O)O)C(=O)N[C@@H](CC(=O)O)C(=O)N[C@@](C)(Cc1ccccc1)C(=O)N[C@H](C(=O)N[C@@H](CCC(N)=O)C(=O)N[C@@H](Cc1c[nH]c2ccccc12)C(=O)N[C@@H](CC(C)C)C(=O)N[C@@H](CCS(C)(=O)=O)C(=O)N[C@@H](CC(=O)O)C(=O)N[C@H](C(N)=O)[C@@H](C)O)C(C)C` [TP590] (H-H[Aib]QGTFTSDYSKYLDARAAK([AEEA-AEEA-γGlu-C20 diacid])D[αMeF]VQWL[Met(O2)]DT-NH2), the half-maximal effective concentration (EC50) in assay [1] and in assay [2] (setting [3]) was below 5 nM each time. For the same molecule, in assay [2], the “hGCGR/hGLP1R (hTone)” value turned out to be 3.1.
Take `CC(C)C[C@H](NC(=O)[C@H](Cc1ccc(O)cc1)NC(=O)[C@H](CCCCN)NC(=O)[C@H](CO)NC(=O)[C@H](Cc1ccc(O)cc1)NC(=O)[C@H](CC(=O)O)NC(=O)[C@H](CO)NC(=O)[C@@H](NC(=O)[C@H](Cc1ccccc1)NC(=O)[C@@H](NC(=O)CNC(=O)[C@H](CCC(N)=O)NC(=O)C(C)(C)NC(=O)[C@@H](N)Cc1c[nH]cn1)[C@@H](C)O)[C@@H](C)O)C(=O)N[C@@H](CC(=O)O)C(=O)N[C@@H](C)C(=O)N[C@@H](CCCNC(=N)N)C(=O)N[C@@H](C)C(=O)N[C@@H](C)C(=O)N[C@@H](CCCCNC(=O)COCCOCCNC(=O)CC[C@H](NC(=O)CCCCCCCCCCCCCCC(=O)O)C(=O)O)C(=O)N[C@@H](CC(=O)O)C(=O)N[C@@H](Cc1ccccc1)C(=O)N[C@H](C(=O)N[C@@H](CCC(N)=O)C(=O)N[C@@H](Cc1c[nH]c2ccccc12)C(=O)N[C@@H](CC(C)C)C(=O)N[C@@H](CCS(C)(=O)=O)C(=O)N[C@@](C)(CC(=O)O)C(=O)N[C@H](C(N)=O)[C@@H](C)O)C(C)C` [TP627] (H-H[Aib]QGTFTSDYSKYLDARAAK([AEEA-γGlu-C16 diacid])DFVQWL[Met(O2)][αMeD]T-NH2; N-terminus assumed): the 50% effective concentration (EC50) is below 5 nM in assay [1], 0.14 nM in assay [2] (setting [4]) and below 5 nM in assay [2] (setting [3]). Moreover, the “hGCGR/hGLP1R (hTone)” value in assay [2] is 0.6.
Turning to `CC(C)C[C@H](NC(=O)[C@H](Cc1ccc(O)cc1)NC(=O)[C@H](CCCCN)NC(=O)[C@H](CO)NC(=O)[C@H](Cc1ccc(O)cc1)NC(=O)[C@H](CC(=O)O)NC(=O)[C@H](CO)NC(=O)[C@@H](NC(=O)[C@H](Cc1ccccc1)NC(=O)[C@@H](NC(=O)CNC(=O)[C@H](CCC(N)=O)NC(=O)C(C)(C)NC(=O)[C@@H](N)Cc1c[nH]cn1)[C@@H](C)O)[C@@H](C)O)C(=O)N[C@@H](CC(=O)O)C(=O)N[C@@H](C)C(=O)N[C@@H](CCCNC(=N)N)C(=O)N[C@@H](C)C(=O)N[C@@H](C)C(=O)N[C@@H](CCC(N)=O)C(=O)N[C@@H](CC(=O)O)C(=O)N[C@@H](Cc1ccccc1)C(=O)N[C@H](C(=O)N[C@@H](Cc1ccc(CNC(=O)COCCOCCNC(=O)CC[C@H](NC(=O)CCCCCCCCCCCCCCCCC(=O)O)C(=O)O)cc1)C(=O)N[C@@H](Cc1c[nH]c2ccccc12)C(=O)N[C@@H](CC(C)C)C(=O)N[C@@H](CC(C)C)C(=O)N[C@@H](CC(=O)O)C(=O)N[C@H](C(N)=O)[C@@H](C)O)C(C)C` [TP638] (H-H[Aib]QGTFTSDYSKYLDARAAQDFV[Phe(4-CH2NH2)]([AEEA-γGlu-C18 diacid])WLLDT-NH2), the EC50 in assay [1] and in assay [2] (setting [3]) was below 5 nM throughout. Also, the “hGCGR/hGLP1R (hTone)” value in assay [2] came out at 3.3.
Regarding `CC(C)C[C@H](NC(=O)[C@H](Cc1ccc(O)cc1)NC(=O)[C@H](CCCCN)NC(=O)[C@H](CO)NC(=O)[C@H](Cc1ccc(O)cc1)NC(=O)[C@H](CC(=O)O)NC(=O)[C@H](CO)NC(=O)[C@@H](NC(=O)[C@H](Cc1ccccc1)NC(=O)[C@@H](NC(=O)CNC(=O)[C@H](CCC(N)=O)NC(=O)C(C)(C)NC(=O)[C@@H](N)Cc1c[nH]cn1)[C@@H](C)O)[C@@H](C)O)C(=O)N[C@@H](CC(=O)O)C(=O)N[C@@H](C)C(=O)N[C@@H](CCCNC(=N)N)C(=O)N[C@@H](C)C(=O)N[C@@H](C)C(=O)N[C@@H](CCCCNC(=O)COCCOCCNC(=O)COCCOCCNC(=O)CC[C@H](NC(=O)CCCCCCCCCCCCCCCCC(=O)O)C(=O)O)C(=O)N[C@@H](CC(=O)O)C(=O)N[C@@H](Cc1ccccc1)C(=O)N[C@H](C(=O)N[C@@H](CCC(N)=O)C(=O)N[C@@](C)(Cc1c[nH]c2ccccc12)C(=O)N[C@@H](CC(C)C)C(=O)N[C@@H](CCS(C)(=O)=O)C(=O)N[C@@](C)(CC(=O)O)C(=O)N[C@H](C(N)=O)[C@@H](C)O)C(C)C` [TP632] (H-H[Aib]QGTFTSDYSKYLDARAAK([AEEA-AEEA-γGlu-C18 diacid])DFVQ[αMeW]L[Met(O2)][αMeD]T-NH2), in assay [2], the “hGCGR/hGLP1R (hTone)” value was found to be 0.9.
